We go through 18 compounds from patent US20040082664A1, “Derivatives of hydroxyphenyl, a method for preparing thereof and their pharmaceutical composition” (priority 2002, published 2004).

In one assay the target is T1, GST-fused lck SH2 domain (Homo sapiens, UniProt P06239).
T1 construct: GST (Glutathione transferase)-fused lck SH2 domain
Description: Inhibition of in vitro binding of lck SH2 domain to its cognate pYEEI peptide (BIAcore 2000). Conditions: IC50 class for inhibition of GST-lckSH2 binding to immobilized biotinylated […]pYEEIPI peptide; read-out: BOND DEGREE WITH SH2 OF 1ck. The protocol:
The present inventors investigated the inhibition activity of phenyl derivatives on the interaction of GST (Glutathione transferase)-fused lck SH2 domain and a peptide […]pYEEIPI (comprising the sequence PYEEI, a cognate peptide of Lck SH2) by using a real time sensorgram (BIAcore 2000).
At first, the biotinylated peptide was fixed on the surface of BIAcore analysis apparatus and then GST-lckSH2 protein was injected over the surface of the immobilized peptides. The binding of GST-lck SH2 with the peptide is represented as the resonance units (referred as “RU” hereinafter) and 1,000 RU corresponds to a change in surface concentration of 1 ng/mm^2. The binding of GST-lck with the fixed peptide causes the change of refractory index, leading to the increase of RU. In the mean time, when the binding of GST-lck with the fixed peptide is inhibited, RU decreases. Those results are represented in Table 1.

A further assay has as its system IL-2 promoter. Description: IL-2 promoter luciferase reporter assay in anti-CD3 activated Jurkat cells. Format: cell-based. Conditions: Homo sapiens, TCR-induced (anti-CD3) IL-2 promoter luciferase, 2 h pre-incubation. As to the method: In order to confirm whether the compounds of the invention can pass through a cell membrane and inhibit the expression of IL-2 gene leading to T-cell proliferation, the present inventors firstly confirmed T-cell activity by detecting the activity of the luciferase fused on the downstream of IL-2 promoter.
To investigate the activity of IL-2 promoter, Jurkat cells (1×10^6) were transfected with a IL-2 reporter plasmids using Superfect™ (Qiagen Inc.). After 24 hours of transfection, Jurkat cells were pre-incubated with compounds of various concentrations (1 uM-50 uM) for 2 hours and further cultured on 35mm plate pre-coated with 5 ug/ml of anti-CD3 antibody, resulting in T cell activation. The luciferase activity was measured using Berthold luminometer LB953. The IC50 (50% inhibition concentration) of the compounds of the invention on TCR-induced IL-2 promoter activation are shown in Table 2.

Assay [1] relates to collagen-induced rheumatoid arthritis. Description: Inhibition of collagen-induced rheumatoid arthritis in DBA1/LacJ mice. Format: in vivo, mouse. Also on record: key: sum of 4 leg scores (0-4 each), max 16. Conditions: 50 mg/kg/day i.p. daily; day 15 after treatment (day 36 after primary immunization); sum of scores of four legs, maximum 16; mean ± standard deviation. As to the method: After 2 weeks, booster immunization was carried out with 50 μg C II/IFA. From the 3rd week after primary immunization, compounds of the present invention were injected daily into peritoneal cavities of 6-8 mice per group for 15-20 days.
The vehicle control groups were injected daily with 100 μl of 5% ethanol-olive oil mixture in total 15-20 times. Widely used anti-rheumatic drug, Methotrexate, was dissolved in PBS and then injected to mice at 1 mg/kg/day every other day in total 8-10 times. Meanwhile, the compounds of the invention were dissolved in ethanol and then mulsified in olive oil, in which the final ethanol concentration was adjusted to 5% and the compounds of this invention was 50 mg/kg/day.
From the 3rd week after primary immunization, the extent of edema and the joint swelling was monitored everyday to determine arthritic index. Arthitic index is the sum of the arthritic scores of all 4 legs and, therefore, maximum arthritis index of 16 can be achieved (e.g., [4 (maximum arthritic score)/leg]×[4 legs/mouse]=16 (maximum arthritis index/mouse)). […] was presented by the mean arthritis index±standard deviation of each mouse group.

The subject of another assay is skin allograft rejection. In words: Inhibition of skin allograft rejection (Balb/c tail skin grafted onto C57BL/6 mouse). Format: in vivo. As to the method:
For the experiment, allogeneic Balb/c(H-2d) mouse-tail skin was grafted onto C57BL/6(H-2b) mouse. Generally 7-8 mice were assigned to each group. All the phenyl derivatives were dissolved in 100% ethanol, mixed with olive oil, and adjusted to the final concentration of ethanol therein less than 5%. […] Meanwhile, for the group of untreated mice, an olive oil-ethanol mixture was administered as a control. The grafted skin was monitored daily after the removal of the bandage on days 7-9. Rejection was defined as more than 80% necrosis of the graft epithelium.

Setting [2] is: 100 mg/kg/day into abdominal cavity from day of transplantation until complete rejection.

T1 sequence (P06239 127-224 limits assumed): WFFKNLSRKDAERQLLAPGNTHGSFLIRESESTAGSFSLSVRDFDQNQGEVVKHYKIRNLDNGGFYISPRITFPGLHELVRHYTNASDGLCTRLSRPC

With `COC(=O)[C@@H](Cc1ccc(O)c(O)c1)OC(=O)/C=C/c1ccc(O)c(O)c1` [Example 54, (R)-3-(3,4-dihydroxy-phenyl)-acrylic acid 2-(3,4-dihydroxy-phenyl)-1-methoxycarbonyl ethyl ester], the IC50 was 10 to 25 µM on GST-fused lck SH2 domain and 4.5 µM in the assay on IL-2 promoter. For the same compound, in assay [1], the Arthritis index turned out to be 3.5 ± 1.1. Besides, the “Survival time of skin graft tissue (days ± variance)” value (“Survival time of skin graft tissue” for short) in the assay with skin allograft rejection (setting [2]) is listed as 13 ± 0.9 days.

As to `CCCOC(=O)[C@@H](Cc1ccc(O)c(O)c1)OC(=O)/C=C/c1ccc(O)c(O)c1` [Example 55, (R)-3-(3,4-Dihydroxy-phenyl)-acrylic acid 2-(3,4-dihydroxy-phenyl)-1-propoxycarbonyl ethyl ester], the IC50 at GST-fused lck SH2 domain was 10 to 25 µM; in the assay with IL-2 promoter, 5.7 µM. The same compound showed an Arthritis index in assay [1] of 4.8 ± 0.8. The “Survival time of skin graft tissue” value in the assay with skin allograft rejection (setting [2]) was 12.1 ± 0.8 days.

In the case of `CN(C(=O)/C=C/c1ccc(O)c(O)c1)[C@@H](Cc1ccc(O)c(O)c1)C(N)=O` [Example 42, N-[l-carbamoyl-2-(3,4-dihydroxy-phenyl)-ethyl]-(S)-3-trans-(3,4-dihydroxy-phenyl)-N-methyl-acrylamide], the IC50 was 10 to 25 µM on GST-fused lck SH2 domain and 14.6 µM in the assay with IL-2 promoter. The same compound registered an Arthritis index in assay [1] of 5.1 ± 1.9. Besides, in the assay with skin allograft rejection (setting [2]), the “Survival time of skin graft tissue” value came out at 14.3 ± 0.9 days.

In the case of `CCCOC(=O)[C@H](Cc1ccc(O)c(O)c1)NC(=O)/C=C/c1ccc(O)c(O)c1` [Example 11, 3-(3,4-dihydroxy-phenyl)-(S)-2-[3-trans-(3,4-dihydroxy-phenyl)-acryloylamino]-propionic acid propyl ester], the IC50 at GST-fused lck SH2 domain is 10 to 25 µM; with IL-2 promoter it was 4.9 µM. For the same compound, in assay [1], the Arthritis index worked out at 6.1 ± 1.3. Besides, the “Survival time of skin graft tissue” value with skin allograft rejection (setting [2]) amounted to 14.4 ± 0.9 days.

Turning to `CC(C)(C)OC(=O)[C@@H](Cc1ccc(O)c(O)c1)OC(=O)/C=C/c1ccc(O)c(O)c1` [Example 56, (R)-3-(3,4-Dihydroxy-phenyl)-acrylic acid 2-(3,4-dihydroxy-phenyl)-1-tert-butoxycarbonyl ethyl ester], the IC50 at GST-fused lck SH2 domain is 25 to 50 µM; in the assay on IL-2 promoter it was 6.2 µM. In assay [1], the Arthritis index is given as 5.2 ± 0.5. In the assay with skin allograft rejection (setting [2]), the “Survival time of skin graft tissue” value was 12.9 ± 1.2 days.

With `CC(C)OC(=O)[C@H](Cc1ccc(O)c(O)c1)NC(=O)/C=C/c1ccc(O)c(O)c1` [Example 12, 3-(3,4-dihydroxy-phenyl)-(S)-2-[3-trans-(3,4-dihydroxy-phenyl)-acryloylamino]-propionic acid isopropyl ester], the IC50 at GST-fused lck SH2 domain is 10 to 25 µM; in the assay on IL-2 promoter, 9.5 µM. In assay [1], this compound displayed an Arthritis index of 5.1 ± 0.7. For the same compound, the “Survival time of skin graft tissue” value with skin allograft rejection (setting [2]) worked out at 15.7 ± 0.8 days.

For the compound `COC(=O)[C@H](Cc1ccc(O)cc1)NC(=O)/C=C/c1ccc(O)c(O)c1` [Example 47, (S)-2-[trans-3-(3,4-dihydroxy-phenyl)-acryloylamino]-3-(4-hydroxy-phenyl)-propionic acid methyl ester], the IC50 on GST-fused lck SH2 domain is 25 to 50 µM; in the assay on IL-2 promoter, 21 µM. The Arthritis index in assay [1] is given as 6.9 ± 1.1. Also, the “Survival time of skin graft tissue” value in the assay with skin allograft rejection (setting [2]) is reported as 11.7 ± 1.0 days.

For `O=C(/C=C/c1ccc(O)c(O)c1)N[C@H](Cc1ccc(O)cc1)C(=O)O` [Example 46, (R)-2-[trans-3-(3,4-dihydroxy-phenyl)-acryloylamino]-3-(4-hydroxy-phenyl)-propionic acid], the IC50 on GST-fused lck SH2 domain is 25 to 50 µM; in the assay on IL-2 promoter it was 19 µM. The same compound gave an Arthritis index in assay [1] of 6.1 ± 0.7. In addition, in the assay with skin allograft rejection (setting [2]), the “Survival time of skin graft tissue” value is recorded as 11.9 ± 0.9 days.

In the case of `COC(=O)[C@@H](Cc1ccc(O)c(O)c1)NC(=O)CCc1ccc(O)c(O)c1` [Example 52, 3-(3,4-dihydroxy-phenyl)-2-[3-(3,4-dihydroxy-phenyl)-propionylamino]-propionic acid methyl ester], the IC50 at GST-fused lck SH2 domain was 10 to 25 µM; with IL-2 promoter, 21 µM. The compound also gave an Arthritis index in assay [1] of 4.0 ± 0.7. In the assay on skin allograft rejection (setting [2]), the “Survival time of skin graft tissue” value came out at 13.4 ± 1.2 days.

`CN(CCc1ccc(O)c(O)c1)C(=O)/C=C/c1ccc(O)c(O)c1` [Example 44, 3-(3,4-dihydroxy-phenyl)-N-[2-(3,4-dihydroxy-phenyl)-ethyl]-N-methyl-acrylamide]: the results for the IC50 on GST-fused lck SH2 domain and with IL-2 promoter were 25 to 50 µM and 17.4 µM, respectively. Moreover, in assay [1], the Arthritis index turned out to be 6.8 ± 1.0. In addition, the “Survival time of skin graft tissue” value with skin allograft rejection (setting [2]) came out at 12.5 ± 0.9 days.

Turning to `CO[C@H]1C[C@@H]2CC[C@@H](C)[C@@](O)(O2)C(=O)C(=O)N2CCCC[C@H]2C(=O)O[C@H]([C@H](C)C[C@@H]2CC[C@@H](O)[C@H](OC)C2)CC(=O)[C@H](C)/C=C(\C)[C@@H](O)[C@@H](OC)C(=O)[C@H](C)C[C@H](C)/C=C/C=C/C=C/1C` [Rapamycine, reference compound], the “Survival time of skin graft tissue” value amounted to 12.7 ± 1.5 days in the assay with skin allograft rejection (Rapamycine 1 mg/kg/day) and 16.2 ± 1.0 days in the assay with skin allograft rejection (Rapamycine 4 mg/kg/day).

Take `COC(=O)C(Cc1ccc(O)c(O)c1)NC/C=C/c1ccc(O)c(O)c1` (stereo not drawn) [Example 53, 3-(3,4-dihydroxy-phenyl)-2-[3-(3,4-dihydroxy-phenyl)-arylamino]-propionic acid methyl ester]: in the assay with IL-2 promoter, the IC50 stood at 24.4 µM. In assay [1], this compound gave an Arthritis index of 9.8 ± 1.2. Moreover, the “Survival time of skin graft tissue” value in the assay on skin allograft rejection (setting [2]) worked out at 11.9 ± 1.1 days.

In the case of `CCCOC(=O)[C@@H](Cc1ccc(O)c(O)c1)N(C)C(=O)/C=C/c1ccc(O)c(O)c1` [Example 32], the results for the IC50 at GST-fused lck SH2 domain and with IL-2 promoter were 10 to 25 µM and 9 µM, respectively. Also, the Arthritis index in assay [1] is 5.3 ± 1.7.

Regarding `CCCOC(=O)[C@@H](Cc1ccc(O)c(O)c1)NC(=S)/C=C/c1ccc(O)c(O)c1` [Example 18, 3-(3,4-dihydroxy-phenyl)-(R)-2-[3-trans-(3,4-dihydroxy-phenyl)-thioacryloylamino]-propionic acid propyl ester], the results for the IC50 at GST-fused lck SH2 domain and in the assay with IL-2 promoter were 10 to 25 µM and 5.6 µM, respectively. For the same compound, the Arthritis index in assay [1] is recorded as 5.8 ± 0.3.

With `CCOC(=O)[C@H](Cc1ccc(O)c(O)c1)NC(=S)/C=C/c1ccc(O)c(O)c1` [Example 24, 3-(3,4-dihydroxy-phenyl)-(S)-2-[3-trans-(3,4-dihydroxy-phenyl)-thioacryloylamino]-propionic acid ethyl ester], the IC50 at GST-fused lck SH2 domain was 10 to 25 µM; with IL-2 promoter, 10.8 µM. The compound further returned an Arthritis index in assay [1] of 6.1 ± 0.6.

Consider `COC(=O)[C@@H](Cc1ccc(O)cc1)NC(=O)/C=C/c1ccc(O)c(O)c1` [Example 45], for which the results for the IC50 at GST-fused lck SH2 domain and with IL-2 promoter were 10 to 25 µM and 7.8 µM, respectively. The compound also showed an Arthritis index in assay [1] of 5.7 ± 0.9.

Turning to `CC(C)OC(=O)[C@H](Cc1ccc(O)c(O)c1)NC(=S)/C=C/c1ccc(O)c(O)c1` [Example 26, 3-(3,4-dihydroxy-phenyl)-(S)-2-[3-trans-(3,4-dihydroxy-phenyl)-thioacryloylamino]-propionic acid isopropyl ester], the IC50 at GST-fused lck SH2 domain is 25 to 50 µM; with IL-2 promoter, 18.7 µM. Further, the Arthritis index in assay [1] amounted to 7.0 ± 0.9.

Take `COC(=O)[C@@H](Cc1ccc(O)c(O)c1)N(C)C(=O)/C=C/c1ccc(O)c(O)c1` [Example 29, 3-(3,4-dihydroxy-phenyl)-(R)-2-{[3-trans-(3,4-dihydroxy-phenyl)-acryloyl]-methyl-amino}-propionic acid methyl ester]: the IC50 was 10 to 25 µM at GST-fused lck SH2 domain and 7.6 µM in the assay on IL-2 promoter. This compound came in with an Arthritis index in assay [1] of 6.1 ± 2.1.
